Experimental findings from patent EP2319525A1, “Composition for treating insulin resistance” (Universitätsklinikum Hamburg-Eppendorf, priority 2009, dated 2011) are described below.

Type in all cases: cell-based, rodent
Assay [1] relates to L6 myotubes. The experiment in a line: Long-term (24 hours) stimulation: basal and insulin-mediated uptake of H-3-labeled 2-Deoxy-D-glucose in L6 myotubes. As for the experimental part:
(§1) The data presented below were generated in the rodent myoblast cell line L6 (ATCC #CRL-1458). […] L6 myotubes express both the AT-1 and the AT-2 receptor at relevant levels making these cells an ideal model to test the interference of both receptors with basal and insulin-mediated glucose uptake. L6 myoblasts were maintained as proliferating myoblasts in DMEM high glucose medium supplemented with 10% FCS, 4 mM L-glutamine, 1 mM pyruvate at 37°C in the presence of 5% CO2. The seeding density used for the experiments was 2 x 10^4 cells/cm^2 on 1% gelatincoated dishes. To induce differentiation of myoblasts into myotubes, 90-100% confluent cultures (cultured on standard 6-well plates) were switched to DMEM supplemented with 2% adult horse serum. Myoblast growth and myotube formation were examined using phase-contrast microscopy. The medium was changed every 2 days, and differentiation was allowed to continue for 10 days before the experimentation period.
(§2) L6 myotubes (n=9-12) cultured as described in example 1 were incubated either with angiotensin II (10^-7 mol/l), with a combination of angiotensin II (10^-7 mol/l) and AT-1 receptor blocker losartan (10^-7 mol/L), or with a combination of angiotensin II (10^-7 mol/l), losartan (10^-7 mol/L) and AT-2 receptor blocker PD 123319 (10^-7 mol/L). The uptake of H-3-labeled 2-Deoxy-D-glucose (GE Healthcare Biosciences), which cannot undergo further glycolysis, was measured as follows: • H-3-labeled 2-Deoxy-D-glucose uptake in the differentiated myotubes was analysed as described previously (Ceddia et al., Diabetologia (2005); 48 (1) :132-9) with minor modifications. Differentiated myotubes were serum-starved overnight in DMEM containing 1% glucose before being incubated with angiotensin II, the AT-1 receptor blocker losartan, and/or the AT-2 receptor blocker PD123319. […] Cell lysates were transferred to scintillation vials for radioactivity counting. Non-specific uptake was determined in the presence of cytochalasin B (10 µmol/L) and was subtracted from all values. […]

Assay [2] deals with L6 myotubes. Description: Uptake of H-3-labeled 2-Deoxy-D-glucose in differentiated L6 myotubes, short-term incubation (20 min + 10 min). To be noted: CGP-42112A 10^-8 mol/L, alone and in combination with losartan 10^-7 mol/L. As for the experimental part: The data presented below were generated in the rodent myoblast cell line L6 (ATCC #CRL-1458). […] L6 myotubes express both the AT-1 and the AT-2 receptor at relevant levels making these cells an ideal model to test the interference of both receptors with basal and insulin-mediated glucose uptake. L6 myoblasts were maintained as proliferating myoblasts in DMEM high glucose medium supplemented with 10% FCS, 4 mM L-glutamine, 1 mM pyruvate at 37°C in the presence of 5% CO2. The seeding density used for the experiments was 2 x 10^4 cells/cm^2 on 1% gelatincoated dishes. To induce differentiation of myoblasts into myotubes, 90-100% confluent cultures (cultured on standard 6-well plates) were switched to DMEM supplemented with 2% adult horse serum. […] The uptake of H-3-labeled 2-Deoxy-D-glucose (GE Healthcare Biosciences), which cannot undergo further glycolysis, was measured as follows: • H-3-labeled 2-Deoxy-D-glucose uptake in the differentiated myotubes was analysed as described previously ([…] et al., Diabetologia (2005); 48 (1) :132-9) with minor modifications. […] Cell lysates were transferred to scintillation vials for radioactivity counting. Non-specific uptake was determined in the presence of cytochalasin B (10 μmol/L) and was subtracted from all values. […] The uptake of H-3-labeled 2-Deoxy-D-glucose was measured as described in Example 1 above.

Assay [3] has as its system L6 myotubes. The assay is described as above. The protocol:
as §1, §2

[4] abbreviates: PD 123319 10^-7 mol/L added to angiotensin II 10^-7 mol/L + losartan 10^-7 mol/L.

Side chains are listed from the residue outwards. Peptide text beside a SMILES is read from it. * marks the point of attachment. Nicotinoyl = O=C(c1cccnc1)*; Cbz = O=C(OCc1ccccc1)*

`CCCCc1nc(Cl)c(CO)n1Cc1ccc(-c2ccccc2-c2nn[nH]n2)cc1` [losartan]: the “basal glucose uptake of L6 myotubes” value in assay [1] (losartan 10^-7 mol/L alone) was “induced”. The “insulin-mediated glucose uptake of L6 myotubes” value in assay [1] (losartan 10^-7 mol/L alone, insulin 1 µg/ml) is listed as “induced”.
Turning to `CC[C@H](C)[C@H](NC(=O)[C@@H]1CCCN1C(=O)[C@H](Cc1c[nH]cn1)NC(=O)[C@H](CCCCNC(=O)[C@H](CCCNC(=N)N)NC(=O)OCc1ccccc1)NC(=O)[C@H](Cc1ccc(O)cc1)NC(=O)c1cccnc1)C(=O)O` [CGP-42112A] (Nicotinoyl-YK([Arg-Cbz])HPI-OH), the “glucose uptake compared with the effect of angiotensin II” value in assay [2] is given as “mimicked”.
As to `Cc1cc(Cn2cnc3c2CC(C(=O)O)N(C(=O)C(c2ccccc2)c2ccccc2)C3)ccc1N(C)C` (stereo not shown) [PD123319], in assay [3] (PD 123319 10^-7 mol/L added to CGP-42112A 10^-8 mol/L + losartan 10^-7 mol/L), the “effect on the CGP-42112A-induced glucose uptake” value was “completely blocked”. In addition, the “effect on the glucose uptake enhanced by angiotensin II in the presence of losartan” value is “inhibited” in assay [3] (setting [4]) and “completely absent” in assay [1] (setting [4]). For the same compound, the “uptake of H-3-labeled 2-Deoxy-D-glucose” value in assay [3] (substance alone, 10^-7 mol/L, L6 myotubes, n=9-12) is listed as “did not affect”.
